Assay results: US8859225B2, “Systems and methods of voltage-gated ion channel assays” (The Charles Stark Draper Laboratory, Inc., priority 2006, dated 2014)

Test system: cardiac cell potassium channels
Experiment: potassium ion-selective optical ion sensor fluorescence assay of electrically paced cardiac myocyte cells (hERG screening)
Assay type: cell-based
Conditions: 2.0 μM Haloperidol; myocyte cells paced at 1.0 Hz; FIG. 10D in comparison to FIG. 10B
Text: In one particular example, a cell assay system built in accordance with principles of the invention can be used to conduct hERG screening assays. The hERG gene regulates the activity of potassium ion channels in cardiac myocyte cells. In a functioning heart, electrical voltages are generated by modified myocytes in the sinoatrial and atrioventricular nodes (pacemaking nodes). Such voltages are propagated through the heart by the action of various voltage-gated ion channels that alter the voltage gradients across cardiac cell membranes by exchanging sodium, calcium, and potassium ions across the cell membrane. Various agents are known to interfere with the hERG gene, or otherwise block potassium channel operation, resulting in arrhythmia and potentially heart failure. […]
To test for potassium channel interference, cardiac myocyte cells are provided in a monolayer adhered to a biological sample holder. […] As potassium ions are passed into and out of the myocytes by potassium channels, the fluorescence of the potassium selective optical ion sensor varies in a detectable fashion.
FIGS. 10A and 10B are graphs charting the intensity of potassium ion-selective optical ion sensor fluorescence monitoring the activity of myocyte cells in a biological sample holder. […] The graph of FIG. 10A includes normalized raw fluorescence measurements, both observed and filtered. […]

SMILES: O=C(CCCN1CCC(O)(c2ccc(Cl)cc2)CC1)c1ccc(F)cc1 [Haloperidol]
- reduction of intensity of fluorescence oscillations at 1.0 Hz (change of extracellular potassium concentration per beat): 30%
